Source: patent publication US20240116912A1, “COMPOUNDS AND METHODS FOR MODULATING FXR” (Terns Pharmaceuticals, Inc., priority 2020, published 2024)

Columns and labels:
[1] = target: full length human FXR protein (Homo sapiens (Human), UniProt Q96RI1); test: FXR cellular assay (FXR-SRCP β-gal enzyme fragment complementation in CHO-K1 cells, chemiluminescence); format: cell-based; settings: CHO-K1 cells with SRCP-EA and ProLink-labeled FXR, 0-10 micromolar compound, 37° C. for 6h, read-out: EC50 FXR-cell Luminescence/
Text: A cell based FXR assay was used to detect protein-protein interactions between an activated (ligand-bound), full length human FXR protein and a nuclear fusion protein containing a Steroid Receptor Coactivator Peptide (SCRP) domain. In this approach, two weakly complementing fragments of the 3-gal enzyme were expressed within stably transfected Chinese Hamster Ovary (CHO-K1) cells. The complementing fragments of the 3-gal enzyme (ProLink, PK; and Enzyme Acceptor, EA) were translationally fused to the C-terminus of a full-length FXR and to the SRCP, respectively. Complementation was driven by the protein-protein interaction between SRCP-EA and a ProLink-labeled FXR. Upon FXR-SRCP binding, the two fragments of 3-gal complement, forming a functional enzyme capable of hydrolyzing a substrate molecule and generating a chemiluminescent signal.
CHO-K1 cells containing SRCP-EA and ProLink-labeled FXR were plated in 384-well microplates and incubated at 37° C. overnight. A positive control FXR agonist, GW4064 (0-10 micromolar), or test compounds (0-10 micromolar) were added to plated cells and incubated at 37° C. for 6h (final DMSO vehicle concentration was 1%). The assay signal was generated by addition of 50% (v/v) detection reagent (19:5:1, cell assay buffer: substrate reagent 1: substrate reagent 2, DiscoverX) followed by incubation for 1h at ambient room temperature. Microplates were analyzed using an Envision reader (PerkinElmer Life and Analytical Sciences, Signal=chemiluminescence).

[2] = target: ligand binding domain (LBD) of recombinant human FXR (Homo sapiens (Human), UniProt Q96RI1); test: FXR cell free coactivator (SRC-1) recruitment assay, TR-FRET; settings: FXR LBD (amino acids 244-476) with labeled SRC-1 domain, 25° C. for 60 minutes, activity relative to CDCA maximum; read-out: EC50 FXR- Biochemical TR-FRET/μM
Procedure: A cell free coactivator recruitment assay was developed for FXR, to measure the functional potency of novel FXR compounds. In this assay, novel FXR compounds were bound to the ligand binding domain (LBD) of recombinant human FXR. The ability of this liganded homodimeric complex to recruit the co-activator protein steroid receptor coactivator 1 (SRC-1) was measured using Time-Resolved Fluorescence Resonance Energy Transfer (TR-FRET).
The LBD of human FXR (amino acids 244-476) was cloned into an expression vector for protein expression in SF9 insect cells. Purified FXR LBD was incubated in TR-FRET coregulator buffer G (Eurofins) with test compounds (0-10 micromolar) and a labeled nuclear receptor interaction domain of SRC-1 at 25° C. for 60 minutes (final DMSO vehicle concentration was 1.2%). Assays were analyzed using an Envision TR-FRET reader (PerkinElmer Life and Analytical Sciences). Compound activity at each concentration was defined as a percentage of the maximal activity of the natural FXR ligand agonist chenodeoxycholic acid (CDCA) generating a dose response curve.

Chain of full length human FXR protein (Q96RI1 whole entry, the tested form may be a part): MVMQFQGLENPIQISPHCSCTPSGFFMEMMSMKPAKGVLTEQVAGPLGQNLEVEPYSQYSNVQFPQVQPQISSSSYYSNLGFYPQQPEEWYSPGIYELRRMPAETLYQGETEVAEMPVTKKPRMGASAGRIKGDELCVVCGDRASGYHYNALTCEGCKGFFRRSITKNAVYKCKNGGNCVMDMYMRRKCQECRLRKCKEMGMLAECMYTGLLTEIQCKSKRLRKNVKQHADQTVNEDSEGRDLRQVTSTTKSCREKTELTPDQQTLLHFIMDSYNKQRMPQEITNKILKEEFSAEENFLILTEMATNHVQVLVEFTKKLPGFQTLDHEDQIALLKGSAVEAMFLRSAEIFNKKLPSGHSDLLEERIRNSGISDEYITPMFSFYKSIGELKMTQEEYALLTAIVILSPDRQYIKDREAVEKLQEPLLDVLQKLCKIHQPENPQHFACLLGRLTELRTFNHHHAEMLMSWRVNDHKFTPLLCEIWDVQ
Chain of ligand binding domain (LBD) of recombinant human FXR (Q96RI1 254-486): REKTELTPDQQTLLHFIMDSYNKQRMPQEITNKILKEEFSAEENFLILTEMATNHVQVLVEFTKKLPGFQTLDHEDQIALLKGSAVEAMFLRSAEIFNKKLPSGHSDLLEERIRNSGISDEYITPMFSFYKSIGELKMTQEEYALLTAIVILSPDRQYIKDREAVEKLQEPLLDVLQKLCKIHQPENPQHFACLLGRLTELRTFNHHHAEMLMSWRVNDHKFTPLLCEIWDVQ
Chain of ligand binding domain (LBD) of recombinant human FXR (Q15788 whole entry partner, the tested form may be a part): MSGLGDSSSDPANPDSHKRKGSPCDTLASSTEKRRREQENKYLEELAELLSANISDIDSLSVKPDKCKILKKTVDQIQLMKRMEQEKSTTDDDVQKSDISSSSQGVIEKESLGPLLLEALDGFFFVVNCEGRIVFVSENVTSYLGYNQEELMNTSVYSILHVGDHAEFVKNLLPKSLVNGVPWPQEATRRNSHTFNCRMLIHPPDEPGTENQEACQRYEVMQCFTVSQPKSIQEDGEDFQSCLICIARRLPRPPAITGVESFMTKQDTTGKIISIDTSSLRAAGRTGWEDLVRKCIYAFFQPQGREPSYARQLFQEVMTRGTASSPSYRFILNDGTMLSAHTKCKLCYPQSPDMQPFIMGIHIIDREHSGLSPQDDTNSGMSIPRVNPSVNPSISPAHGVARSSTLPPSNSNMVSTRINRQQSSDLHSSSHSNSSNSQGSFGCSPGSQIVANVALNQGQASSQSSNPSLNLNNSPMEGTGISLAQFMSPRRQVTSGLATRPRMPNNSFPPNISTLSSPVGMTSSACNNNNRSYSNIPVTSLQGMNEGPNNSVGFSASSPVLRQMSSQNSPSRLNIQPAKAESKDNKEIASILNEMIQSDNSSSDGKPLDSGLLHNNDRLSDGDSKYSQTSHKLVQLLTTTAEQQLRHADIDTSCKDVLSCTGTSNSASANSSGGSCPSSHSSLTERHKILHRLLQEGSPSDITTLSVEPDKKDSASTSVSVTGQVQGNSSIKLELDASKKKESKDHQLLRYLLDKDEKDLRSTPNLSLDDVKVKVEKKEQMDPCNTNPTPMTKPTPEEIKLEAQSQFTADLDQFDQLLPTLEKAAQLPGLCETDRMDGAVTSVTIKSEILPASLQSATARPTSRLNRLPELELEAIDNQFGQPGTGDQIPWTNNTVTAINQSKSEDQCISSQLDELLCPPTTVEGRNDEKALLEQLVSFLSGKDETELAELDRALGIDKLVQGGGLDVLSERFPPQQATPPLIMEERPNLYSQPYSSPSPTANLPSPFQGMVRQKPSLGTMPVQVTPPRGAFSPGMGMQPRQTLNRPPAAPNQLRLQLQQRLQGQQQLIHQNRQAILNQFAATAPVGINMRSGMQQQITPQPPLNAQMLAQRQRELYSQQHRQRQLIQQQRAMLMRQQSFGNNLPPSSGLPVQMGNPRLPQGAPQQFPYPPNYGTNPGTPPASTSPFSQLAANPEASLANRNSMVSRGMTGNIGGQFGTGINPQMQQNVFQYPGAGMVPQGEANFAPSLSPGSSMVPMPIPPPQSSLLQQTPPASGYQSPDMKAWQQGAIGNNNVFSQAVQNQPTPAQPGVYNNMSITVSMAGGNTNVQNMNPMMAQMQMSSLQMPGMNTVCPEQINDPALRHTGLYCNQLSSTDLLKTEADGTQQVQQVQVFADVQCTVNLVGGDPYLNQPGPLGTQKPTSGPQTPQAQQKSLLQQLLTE

Compound	EC50 [1] [nM]	EC50 [2] [µM]
O=c1[nH]nc(-c2ccc(N3[C@@H]4CC[C@H]3C[C@@H](OCc3c(-c5ccccc5OC(F)(F)F)noc3C3CC3)C4)cc2)o1 [Example 65, 5-(4-((1R,3r,5S)-3-((5-cyclopropyl-3-(2-(trifluoromethoxy)phenyl)isoxazol-4-yl)methoxy)-8-azabicyclo[3.2.1]octan-8-yl)phenyl)-1,3,4-oxadiazol-2(3H)-one]	954	0.0221
N#Cc1n[nH]c(=O)n(-c2ccc(N3CCC(OCc4c(-c5ccccc5OC(F)(F)F)noc4C4CC4)CC3)cc2)c1=O [Example 86, 4-(4-(4-((5-cyclopropyl-3-(2-(trifluoromethoxy)phenyl)isoxazol-4-yl)methoxy)piperidin-1-yl)phenyl)-3,5-dioxo-2,3,4,5-tetrahydro-1,2,4-triazine-6-carbonitrile]	22900	–
O=c1[nH]nc(-c2ccc(N3CCC(OCc4c(-c5c(Cl)cccc5Cl)noc4C4CC4)CC3)cc2F)c(=O)[nH]1 [Example 41, 6-(4-(4-((5-cyclopropyl-3-(2,6-dichlorophenyl)isoxazol-4-yl)methoxy)piperidin-1-yl)-2-fluorophenyl)-1,2,4-triazine-3,5(2H,4H)-dione]	244	0.0584
O=c1cc(-c2ccc(N3CCC(OCc4c(-c5c(Cl)cccc5Cl)noc4C4CC4)CC3)cc2)o[nH]1 [Example 16, 5-(4-(4-((5-cyclopropyl-3-(2,6-dichlorophenyl)isoxazol-4-yl)methoxy)piperidin-1-yl)phenyl)isoxazol-3(2H)-one]	195	0.024
O=c1cc(-c2ccc(N3CCC(OCc4c(-c5ccccc5OC(F)(F)F)noc4C4CC4)C(F)(F)C3)cc2)o[nH]1 (stereo not drawn) [Example 84, 5-(4-(4-((5-cyclopropyl-3-(2-(trifluoromethoxy)phenyl)isoxazol-4-yl)methoxy)-3,3-difluoropiperidin-1-yl)phenyl)isoxazol-3(2H)-one]	1530	–
O=c1cc(-c2ccc(N3[C@@H]4CC[C@H]3C[C@@H](OCc3c(-c5ccccc5OC(F)(F)F)noc3C3CC3)C4)cc2)o[nH]1 [Example 81, 5-(4-((1R,3r,5S)-3-((5-cyclopropyl-3-(2-(trifluoromethoxy)phenyl)isoxazol-4-yl)methoxy)-8-azabicyclo[3.2.1]octan-8-yl)phenyl)isoxazol-3(2H)-one]	175	–
N#Cc1nn(-c2ccc(N3[C@@H]4CC[C@H]3C[C@@H](OCc3c(-c5ccccc5OC(F)(F)F)noc3C3CC3)C4)cc2)c(=O)[nH]c1=O [Example 89, 2-(4-((1R,3r,5S)-3-((5-cyclopropyl-3-(2-(trifluoromethoxy)phenyl)isoxazol-4-yl)methoxy)-8-azabicyclo[3.2.1]octan-8-yl)phenyl)-3,5-dioxo-2,3,4,5-tetrahydro-1,2,4-triazine-6-carbonitrile]	1000	–
N#Cc1nn(-c2ccc(N3CCC(OCc4c(-c5c(Cl)cccc5Cl)noc4C4CC4)CC3)nc2)c(=O)[nH]c1=O [Example 82, 2-(6-(4-((5-cyclopropyl-3-(2,6-dichlorophenyl)isoxazol-4-yl)methoxy)piperidin-1-yl)pyridin-3-yl)-3,5-dioxo-2,3,4,5-tetrahydro-1,2,4-triazine-6-carbonitrile]	1830	–
N#Cc1nn(-c2ccc(N3CCC(OCc4c(-c5ccccc5OC(F)(F)F)noc4C4CC4)CC3)cc2)c(=O)[nH]c1=O [Example 85, 2-(4-(4-((5-cyclopropyl-3-(2-(trifluoromethoxy)phenyl)isoxazol-4-yl)methoxy)piperidin-1-yl)phenyl)-3,5-dioxo-2,3,4,5-tetrahydro-1,2,4-triazine-6-carbonitrile]	755	–
O=c1[nH]c(-c2ccc(N3CC[C@H](OCc4c(-c5ccccc5OC(F)(F)F)noc4C4CC4)[C@@H](F)C3)cc2)no1 [Example 80, 3-(4-((3S,4S)-4-((5-cyclopropyl-3-(2-(trifluoromethoxy)phenyl)isoxazol-4-yl)methoxy)-3-fluoropiperidin-1-yl)phenyl)-1,2,4-oxadiazol-5(4H)-one]	641	–
O=c1cc(-c2ccc(N3CCC(OCc4c(-c5c(Cl)cccc5Cl)noc4C4CC4)C(F)(F)C3)cc2)o[nH]1 (stereo not drawn) [Example 87, 5-(4-(4-((5-cyclopropyl-3-(2,6-dichlorophenyl)isoxazol-4-yl)methoxy)-3,3-difluoropiperidin-1-yl)phenyl)isoxazol-3(2H)-one]	261	–
O=c1[nH]c(-c2ccc(N3[C@@H]4CC[C@H]3C[C@@H](OCc3c(-c5ccccc5Cl)noc3C3CC3)C4)nc2)no1 [Example 77, 3-(6-((1R,3r,5S)-3-((3-(2-chlorophenyl)-5-cyclopropylisoxazol-4-yl)methoxy)-8-azabicyclo[3.2.1]octan-8-yl)pyridin-3-yl)-1,2,4-oxadiazol-5(4H)-one]	69.5	–
O=c1[nH]c(-c2ccc(N3[C@@H]4CC[C@H]3C[C@@H](OCc3c(-c5c(F)cccc5F)noc3C3CC3)C4)nc2)no1 [Example 78, 3-(6-((1R,3r,5S)-3-((5-cyclopropyl-3-(2,6-difluorophenyl)isoxazol-4-yl)methoxy)-8-azabicyclo[3.2.1]octan-8-yl)pyridin-3-yl)-1,2,4-oxadiazol-5(4H)-one]	154	–
C[C@@H]1C[C@H](OCc2c(-c3ccccc3OC(F)(F)F)noc2C2CC2)CCN1c1ccc(-c2noc(=O)[nH]2)cn1 [Example 76, 3-(6-((2R,4R)-4-((5-cyclopropyl-3-(2-(trifluoromethoxy)phenyl)isoxazol-4-yl)methoxy)-2-methylpiperidin-1-yl)pyridin-3-yl)-1,2,4-oxadiazol-5(4H)-one]	196	–
O=c1[nH]c(-c2ccc(N3CCC(OCc4c(-c5ccccc5OC(F)(F)F)noc4C4CC4)CC3)nc2)no1 [Example 75, 3-(6-(4-((5-cyclopropyl-3-(2-(trifluoromethoxy)phenyl)isoxazol-4-yl)methoxy)piperidin-1-yl)pyridin-3-yl)-1,2,4-oxadiazol-5(4H)-one]	382	–

Further molecules by falling EC50 [1], results first:

EC50 [1] [nM]	EC50 [2] [µM]	Compound
11700	0.421	O=c1[nH]c(-c2cc(N3CCC(OCc4c(-c5c(Cl)cccc5Cl)noc4C4CC4)CC3)n[nH]2)no1 [Example 58, 3-(3-(4-((5-cyclopropyl-3-(2,6-dichlorophenyl)isoxazol-4-yl)methoxy)piperidin-1-yl)-1H-pyrazol-5-yl)-1,2,4-oxadiazol-5(4H)-one]
5250	–	N#Cc1n[nH]c(=O)n(-c2ccc(N3CCC(OCc4c(-c5c(Cl)cccc5Cl)noc4C4CC4)CC3)nc2)c1=O [Example 83, 4-(6-(4-((5-cyclopropyl-3-(2,6-dichlorophenyl)isoxazol-4-yl)methoxy)piperidin-1-yl)pyridin-3-yl)-3,5-dioxo-2,3,4,5-tetrahydro-1,2,4-triazine-6-carbonitrile]
2110	0.0281	O=c1[nH]c(-c2ncc(N3CCC(OCc4c(-c5c(Cl)cccc5Cl)noc4C4CC4)CC3)cn2)no1 [Example 8, 3-(5-(4-((5-cyclopropyl-3-(2,6-dichlorophenyl)isoxazol-4-yl)methoxy)piperidin-1-yl)pyrimidin-2-yl)-1,2,4-oxadiazol-5(4H)-one]
460	–	O=c1cnn(-c2ccc(N3[C@@H]4CC[C@H]3C[C@@H](OCc3c(-c5ccccc5OC(F)(F)F)noc3C3CC3)C4)cc2)c(=O)[nH]1 [Example 88, 2-(4-((1R,3r,5S)-3-((5-cyclopropyl-3-(2-(trifluoromethoxy)phenyl)isoxazol-4-yl)methoxy)-8-azabicyclo[3.2.1]octan-8-yl)phenyl)-1,2,4-triazine-3,5(2H,4H)-dione]
312	–	O=c1[nH]c(-c2ccc(N3CC[C@@H](OCc4c(-c5ccccc5OC(F)(F)F)noc4C4CC4)[C@H](F)C3)cc2)no1 [Example 79, 3-(4-((3R,4R)-4-((5-cyclopropyl-3-(2-(trifluoromethoxy)phenyl)isoxazol-4-yl)methoxy)-3-fluoropiperidin-1-yl)phenyl)-1,2,4-oxadiazol-5(4H)-one]
24.7	0.0021	C[C@@H]1C[C@H](OCc2c(-c3c(Cl)cccc3Cl)noc2C2CC2)CCN1c1ccc(-c2noc(=O)[nH]2)cn1 [Example 71, 3-(6-((2R,4R)-4-((5-cyclopropyl-3-(2,6-dichlorophenyl)isoxazol-4-yl)methoxy)-2-methylpiperidin-1-yl)pyridin-3-yl)-1,2,4-oxadiazol-5(4H)-one]
